Results on 1 molecule are retold here after patent publication US20190142737A1, “SUBLINGUAL SPRAY FORMULATION COMPRISING DIHYDROARTEMESININ” (LondonPharma Ltd., priority 2009, published 2019).

Series [1] in a line: Impurities of artemether in solvent systems after eight weeks storage (HPLC). In kind it is physicochemical. As to conditions: in contact with water, ethanol, or propellants for aerosol formulations. An excerpt: Tables 1 and 2 show impurities present in Artemether API, and artemether in three solvent systems: 20% ethanol+80% propellant; 50% ethanol+50% propellant; 100% ethanol; and a medium chain triglyceride, in this case, the triglyceride sold under the registered trade mark Miglyol® 810. Miglyol® is a medium chain triglyceride containing saturated C8 and C10 fatty acids, typically between 65-80% of caprylic acid (C8:0) and 20-35% of capric acid (C10:0). The propellant used in these test was 1,1,1,2 tetrafluoroethane, sold under the registered trade mark Zephex® 134a. Similar results were obtained for the propellants butane, Zephex® 227 (1,1,1,2,3,3,3 heptafluoropropane) and for a mixture of butane and propane. […] In all other cases, the impurities are at levels that exceed those permitted under the ICH Harmonised Tripartite Guidelines for Impurities in New Drug Products without specific identification or further toxicological examination.

For series [2] the following is noted: animals, cited from earlier work.
The conditions of series [3]: humans, cited from earlier work.

Read-outs that look alike come from different tables or passages of the source.

`CO[C@H]1O[C@@H]2O[C@@]3(C)CC[C@H]4[C@H](C)CC[C@@H]([C@H]1C)[C@@]24OO3` [artemether]: the “Stability of artemether (in words)” value in series [1] is on record as “not stable”. Also, the Bioavailability is listed as 54% in series [2] (intramuscular injection), 19-35% in series [2] (oral administration), 25% in series [3] (intramuscular route) and 35% in series [3] (intrarectal route).
